{"source": "patent EP4729511A1", "about": "“COMPOUND OR SALT THEREOF AND METHOD FOR PRODUCING SAME, COMPOSITION, HYDROGEN PEROXIDE REMOVER, AND CYTOTOXICITY INHIBITOR” (Nagase & Co., Ltd., priority 2023, dated 2024)", "key": {"[1]": {"experiment": "Evaluation of hydrogen peroxide removal (OxiSelect hydrogen peroxide assay kit, ADHP/HRP fluorescence)", "type": "biochemical", "details": "as the amount of Compound A increased (doubling dilutions from 10 µM); 4 µM hydrogen peroxide solution; 30 minutes at room temperature; control (Compound A: 0 µM) set as 100%", "experimental": "The resulting Compound A (EGT-X) was subjected to several doubling dilutions from 10 µM with the buffer provided with a kit (OxiSelect hydrogen peroxide assay kit (manufactured by CELL BIOLABS, Inc.)), and 25 µL each of the resulting solutions was added to a 96 well plate. Also, a 4 µM solution in which hydrogen peroxide was diluted with the buffer provided with the kit was prepared, and 25 µL each of said solution was added to the 96 well plate. Further, a blank was prepared under the same conditions except for no hydrogen peroxide was added.\nSubsequently, according to the protocol described in the kit, 50 µL each of a mixture of ADHP (10-acetyl-3,7-dihydroxyphenoxazine) and HRP(horseradish peroxidase) provided with the kit was added thereto, and the resulting mixture was stirred. After incubated at room temperature for 30 minutes, the fluorescence intensity was measured under the condition of excitation wavelength of 530 nm and fluorescence wavelength of 590 nm. The blank value was subtracted from each measurement value to calculate each value. The percentage values when EGT-X was added were calculated based on the control (Compound A: 0 µM) value set as 100%, and the results were plotted in a graph. (Figures 3 and 4)."}, "HEK293 cells": {"system": "HEK293 cells", "experiment": "Evaluation of cytotoxicity inhibition: hydrogen peroxide cytotoxicity against HEK293 cells in the presence of EGT-X (WST-1)", "type": "cell-based", "details": "hydrogen peroxide 0.0015%, cultured 24 hours, WST-1 cell viability", "experimental": "After 24 hours, 50 µL each of EGT-X dissolved in a DMEM and hydrogen peroxide dissolved in a DMEM was added to the plate, so that the hydrogen peroxide concentration would be 0 for the control and 0.0015% for the others, and the EGT-X concentration would be those shown in Figures (Figures 5 and 6). […] The absorbance at 450 nm was measured."}}, "data": [{"smiles": "C[N+](C)(C)[C@@H](Cc1c[nH]c(Sc2[nH]c(=S)[nH]c2C[C@@H](C(=O)[O-])[N+](C)(C)C)n1)C(=O)[O-]", "note": "[Compound A]", "values": [{"measurement": "amount of the residual hydrogen peroxide", "setting": "[1]", "value": "decreased"}, {"measurement": "concentration of EGT-X in the presence of which the cytotoxicity caused by hydrogen peroxide was inhibited", "setting": "HEK293 cells", "value": "≥ 125", "unit": "µM"}]}]}
